Test results: US20170065564A1, “BIS-CYCLIC GUANIDINE COMPOUND COMPOSITIONS, METHODS OF USE AND TREATMENT THEREOF” (University of South Florida, priority 2014, published 2017)

Legend:
[1] = tested on: E. faecium; assay: Resistance serial passage assay; type: cell-based, Enterococcus faecium; settings: 8 passages, concentration doubled each day
Protocol: (§1) ESKAPE pathogens were grown overnight in liquid media at 37° C. These cultures were then diluted 1:100 in fresh media, and seeded into a 96-well plate. Lead bis-cyclic guanidines or control agents were added to respective wells at half MIC concentrations. Plates were then incubated for 24 hours at 37° C., with bacteria removed from these cultures on the following day, to inoculate fresh media (1:100 dilution) containing compounds at a 2-fold higher concentrations. These were then grown overnight, and the procedure repeated for a total of eight days. […] Each experiment was performed in triplicate, yielding identical results.

[2] = tested on: A. baumannii; assay: Resistance serial passage assay; type: cell-based, Acinetobacter baumannii; settings: 8 passages, concentration doubled each day
Protocol: as §1

Compound: CN(C)[C@@H]1C(O)=C(C(N)=O)C(=O)[C@@]2(O)C(O)=C3C(=O)c4c(O)cccc4[C@@](C)(O)[C@H]3C[C@@H]12 [tetracycline, reference compound]
- increase in MIC after serial passage [1]: 128 fold
- increase in MIC after serial passage [2]: 128 fold
